Laboratory results from ChEMBL document CHEMBL3885861, “Open TG-GATES”.

Organism: Rattus norvegicus
Test: Open TG-GATES - Regimen: Single
Format: toxicity, organism-based, Sprague-Dawley
Design: regimen Single, gender Male, age 6 weeks
Conditions: in vivo, po, route gavage; for APTT / Bas / Eos / Fbg / Hb / Ht / Lym / MCH / MCHC / MCV / Mono / Neu / PT / Plat / RBC / Ret / WBC: tissue Blood; for KIDNEY_L / KIDNEY_R / KIDNEY_TOTAL: tissue Kidney; for LIVER: tissue Liver; for A/G / ALP / ALT / AST / BUN / CRE / Ca / Cl / DBIL / GLC / IP / K / LDH / Na / PL / RALB / TBIL / TC / TG / TP / gamma-GTP: tissue Plasma
[1] = 1000 mg/kg, 3 h, dose level Middle
[2] = 1000 mg/kg, 6 h, dose level Middle
[3] = 1000 mg/kg, 9 h, dose level Middle
[4] = 1000 mg/kg, 24 h, dose level Middle
[5] = 2000 mg/kg, 3 h, dose level High
[6] = 2000 mg/kg, 6 h, dose level High
[7] = 2000 mg/kg, 9 h, dose level High
[8] = 2000 mg/kg, 24 h, dose level High

## Clc1c(Cl)c(Cl)c(Cl)c(Cl)c1Cl [PERCHLOROBENZENE]
[1]
  TERMINAL_BW: 222.7 g
  APTT: 18.7 s
  Bas: 0%
  Eos: 1%
  Fbg: 227 mg/dL
  Hb: 13.3 g/dL
  Ht: 38%
  Lym: 78%
  MCH: 21.8 pg
  MCHC: 35%
  MCV: 62.1 fL
  Mono: 3.2%
  Neu: 16.4%
  PT: 11.8 s
  Plat: 122.1 x10_4/uL
  RBC: 612 x10_4/ul
  Ret: 7.6%
  WBC: 85.3 x10_2/uL
  KIDNEY_L: 1 g
  KIDNEY_R: 1 g
  KIDNEY_TOTAL: 1.9 g
  LIVER: 10.4 g
  A/G: 1.7
  ALP: 992 IU/L
  ALT: 35.2 IU/L
  AST: 79.2 IU/L
  BUN: 11.6 mg/dL
  CRE: 0.4 mg/dL
  Ca: 10.9 mg/dL
  Cl: 104 meq/L
  DBIL: 0.066 mg/dL
  GLC: 198.4 mg/dL
  IP: 8.8 mg/dL
  K: 3.8 meq/L
  LDH: 214 IU/L
  Na: 141.6 meq/L
  PL: 143.8 mg/dL
  RALB: 3.5 g/dL
  TBIL: 0.1 mg/dL
  TC: 68.6 mg/dL
  TG: 94.8 mg/dL
  TP: 5.5 g/dL
  gamma-GTP: 1 IU/L
[2]
  TERMINAL_BW: 217.7 g
  APTT: 18.9 s
  Bas: 0.2%
  Eos: 1%
  Fbg: 223.2 mg/dL
  Hb: 13.4 g/dL
  Ht: 38.5%
  Lym: 71.2%
  MCH: 21.6 pg
  MCHC: 34.9%
  MCV: 62.1 fL
  Mono: 3.2%
  Neu: 23.4%
  PT: 12.2 s
  Plat: 132.8 x10_4/uL
  RBC: 620.2 x10_4/ul
  Ret: 7.3%
  WBC: 100.6 x10_2/uL
  KIDNEY_L: 1 g
  KIDNEY_R: 0.9 g
  KIDNEY_TOTAL: 1.9 g
  LIVER: 9 g
  A/G: 1.7
  ALP: 1078.8 IU/L
  ALT: 33.4 IU/L
  AST: 79 IU/L
  BUN: 10 mg/dL
  CRE: 0.4 mg/dL
  Ca: 10.5 mg/dL
  Cl: 103.4 meq/L
  DBIL: 0.064 mg/dL
  GLC: 186 mg/dL
  IP: 9 mg/dL
  K: 4.1 meq/L
  LDH: 224 IU/L
  Na: 141.4 meq/L
  PL: 127.4 mg/dL
  RALB: 3.4 g/dL
  TBIL: 0.1 mg/dL
  TC: 69.4 mg/dL
  TG: 55.2 mg/dL
  TP: 5.4 g/dL
  gamma-GTP: 1 IU/L
[3]
  TERMINAL_BW: 216.4 g
  APTT: 19.1 s
  Bas: 0.2%
  Eos: 1%
  Fbg: 220.6 mg/dL
  Hb: 13.5 g/dL
  Ht: 38.5%
  Lym: 72%
  MCH: 21.2 pg
  MCHC: 34.9%
  MCV: 60.6 fL
  Mono: 2.8%
  Neu: 23%
  PT: 12.3 s
  Plat: 124.7 x10_4/uL
  RBC: 636 x10_4/ul
  Ret: 6.9%
  WBC: 72.6 x10_2/uL
  KIDNEY_L: 1 g
  KIDNEY_R: 1 g
  KIDNEY_TOTAL: 1.9 g
  LIVER: 8.8 g
  A/G: 1.6
  ALP: 926.6 IU/L
  ALT: 27.4 IU/L
  AST: 63.4 IU/L
  BUN: 11.2 mg/dL
  CRE: 0.3 mg/dL
  Ca: 10.5 mg/dL
  Cl: 103.4 meq/L
  DBIL: 0.058 mg/dL
  GLC: 201.2 mg/dL
  IP: 10.4 mg/dL
  K: 3.8 meq/L
  LDH: 191.4 IU/L
  Na: 142 meq/L
  PL: 121.2 mg/dL
  RALB: 3.3 g/dL
  TBIL: 0.1 mg/dL
  TC: 61 mg/dL
  TG: 39 mg/dL
  TP: 5.4 g/dL
  gamma-GTP: 1.2 IU/L
[4]
  TERMINAL_BW: 230.6 g
  APTT: 18.3 s
  Bas: 0.2%
  Eos: 1%
  Fbg: 240.8 mg/dL
  Hb: 13.6 g/dL
  Ht: 39.3%
  Lym: 74.2%
  MCH: 21.3 pg
  MCHC: 34.5%
  MCV: 61.6 fL
  Mono: 3%
  Neu: 20.6%
  PT: 11.7 s
  Plat: 128 x10_4/uL
  RBC: 637.6 x10_4/ul
  Ret: 6.5%
  WBC: 80.8 x10_2/uL
  KIDNEY_L: 1 g
  KIDNEY_R: 1 g
  KIDNEY_TOTAL: 2.1 g
  LIVER: 11.1 g
  A/G: 1.5
  ALP: 901 IU/L
  ALT: 35.4 IU/L
  AST: 66.2 IU/L
  BUN: 14.2 mg/dL
  CRE: 0.4 mg/dL
  Ca: 11 mg/dL
  Cl: 103.4 meq/L
  DBIL: 0.056 mg/dL
  GLC: 204.8 mg/dL
  IP: 6.9 mg/dL
  K: 3.8 meq/L
  LDH: 230.6 IU/L
  Na: 141.4 meq/L
  PL: 152.8 mg/dL
  RALB: 3.4 g/dL
  TBIL: 0.096 mg/dL
  TC: 80.4 mg/dL
  TG: 133.6 mg/dL
  TP: 5.6 g/dL
  gamma-GTP: 1 IU/L
[5]
  TERMINAL_BW: 219.3 g
  APTT: 19.9 s
  Bas: 0.4%
  Eos: 1%
  Fbg: 223.4 mg/dL
  Hb: 13.8 g/dL
  Ht: 38.5%
  Lym: 76.4%
  MCH: 22.1 pg
  MCHC: 35.7%
  MCV: 62 fL
  Mono: 2.2%
  Neu: 19.2%
  PT: 12 s
  Plat: 128.8 x10_4/uL
  RBC: 621.4 x10_4/ul
  Ret: 7.4%
  WBC: 104.4 x10_2/uL
  KIDNEY_L: 1 g
  KIDNEY_R: 1 g
  KIDNEY_TOTAL: 2 g
  LIVER: 10.1 g
  A/G: 1.6
  ALP: 1055.8 IU/L
  ALT: 37.2 IU/L
  AST: 76.8 IU/L
  BUN: 10.8 mg/dL
  CRE: 0.4 mg/dL
  Ca: 11 mg/dL
  Cl: 103 meq/L
  DBIL: 0.062 mg/dL
  GLC: 192.6 mg/dL
  IP: 9.3 mg/dL
  K: 3.8 meq/L
  LDH: 231.2 IU/L
  Na: 141.4 meq/L
  PL: 151 mg/dL
  RALB: 3.4 g/dL
  TBIL: 0.1 mg/dL
  TC: 74.6 mg/dL
  TG: 132 mg/dL
  TP: 5.6 g/dL
  gamma-GTP: 1.2 IU/L
[6]
  TERMINAL_BW: 215.7 g
  APTT: 19.3 s
  Bas: 0.2%
  Eos: 1%
  Fbg: 239.6 mg/dL
  Hb: 13.6 g/dL
  Ht: 39.1%
  Lym: 74%
  MCH: 21.2 pg
  MCHC: 34.6%
  MCV: 61 fL
  Mono: 2.6%
  Neu: 20.8%
  PT: 12 s
  Plat: 134.1 x10_4/uL
  RBC: 641.6 x10_4/ul
  Ret: 7.1%
  WBC: 105.2 x10_2/uL
  KIDNEY_L: 0.9 g
  KIDNEY_R: 0.9 g
  KIDNEY_TOTAL: 1.8 g
  LIVER: 9 g
  A/G: 1.8
  ALP: 1089.2 IU/L
  ALT: 34 IU/L
  AST: 77.2 IU/L
  BUN: 9.4 mg/dL
  CRE: 0.4 mg/dL
  Ca: 10.6 mg/dL
  Cl: 102.8 meq/L
  DBIL: 0.072 mg/dL
  GLC: 196.2 mg/dL
  IP: 9.3 mg/dL
  K: 3.9 meq/L
  LDH: 219 IU/L
  Na: 141.2 meq/L
  PL: 132.6 mg/dL
  RALB: 3.5 g/dL
  TBIL: 0.1 mg/dL
  TC: 73.8 mg/dL
  TG: 55 mg/dL
  TP: 5.5 g/dL
  gamma-GTP: 1 IU/L
[7]
  TERMINAL_BW: 214.9 g
  APTT: 17.8 s
  Bas: 0%
  Eos: 1%
  Fbg: 224.6 mg/dL
  Hb: 13.5 g/dL
  Ht: 38.5%
  Lym: 74.2%
  MCH: 21.5 pg
  MCHC: 35.1%
  MCV: 61.4 fL
  Mono: 2.2%
  Neu: 21%
  PT: 12 s
  Plat: 126.2 x10_4/uL
  RBC: 626.2 x10_4/ul
  Ret: 7.3%
  WBC: 92.9 x10_2/uL
  KIDNEY_L: 1 g
  KIDNEY_R: 1 g
  KIDNEY_TOTAL: 1.9 g
  LIVER: 9 g
  A/G: 1.7
  ALP: 944.6 IU/L
  ALT: 26.4 IU/L
  AST: 68.4 IU/L
  BUN: 10.6 mg/dL
  CRE: 0.4 mg/dL
  Ca: 10.6 mg/dL
  Cl: 103.4 meq/L
  DBIL: 0.064 mg/dL
  GLC: 207.2 mg/dL
  IP: 10.7 mg/dL
  K: 4.1 meq/L
  LDH: 216.6 IU/L
  Na: 141.2 meq/L
  PL: 130.2 mg/dL
  RALB: 3.4 g/dL
  TBIL: 0.1 mg/dL
  TC: 68 mg/dL
  TG: 44 mg/dL
  TP: 5.4 g/dL
  gamma-GTP: 0.8 IU/L
[8]
  TERMINAL_BW: 231.5 g
  APTT: 18.5 s
  Bas: 0.2%
  Eos: 1%
  Fbg: 233.4 mg/dL
  Hb: 13.7 g/dL
  Ht: 39.3%
  Lym: 76.4%
  MCH: 21 pg
  MCHC: 34.8%
  MCV: 60.4 fL
  Mono: 2.6%
  Neu: 19%
  PT: 11.6 s
  Plat: 126.2 x10_4/uL
  RBC: 651.6 x10_4/ul
  Ret: 6%
  WBC: 100 x10_2/uL
  KIDNEY_L: 1 g
  KIDNEY_R: 0.9 g
  KIDNEY_TOTAL: 1.9 g
  LIVER: 11.1 g
  A/G: 1.5
  ALP: 1190.4 IU/L
  ALT: 36.2 IU/L
  AST: 71.4 IU/L
  BUN: 14.8 mg/dL
  CRE: 0.4 mg/dL
  Ca: 10.7 mg/dL
  Cl: 103.4 meq/L
  DBIL: 0.052 mg/dL
  GLC: 195.6 mg/dL
  IP: 7.4 mg/dL
  K: 3.9 meq/L
  LDH: 229.6 IU/L
  Na: 141.2 meq/L
  PL: 139.6 mg/dL
  RALB: 3.3 g/dL
  TBIL: 0.1 mg/dL
  TC: 74 mg/dL
  TG: 108.8 mg/dL
  TP: 5.5 g/dL
  gamma-GTP: 1.2 IU/L
